# Measurements: paper PMC12040169 (PLOS Biology, 2025)
# Assay: in vitro
# Conditions: human, hela cells, % viability
row,SMILES,"viability at 28.5 h, 10 µM"
1,CC(=O)Nc1cccc(-c2cncc(NC3CCC(O)CC3)n2)c1 (stereo not drawn) [CBK065404],88.6%
2,Cn1cc(C2CCCN2C(=O)c2cccc(C#N)c2)cn1 (stereo not drawn) [CBK304849],98%
3,O=C(/C=C\c1ccc(Cl)cc1Cl)N1CCN(Cc2ccc3c(c2)OCO3)CC1 [CBK074371],97.3%
4,c1ccc(-c2cn3ccnc3c(N3CCN(c4ccncc4)CC3)n2)cc1 [CBK066177],110%
5,Cc1cc(=O)oc2cc(Sc3cccc(C(F)(F)F)c3C#N)ccc12 [CBK002914],93.3%
6,O=C(Nc1ccc(N2CCNCC2)nc1)c1cnccn1 [CBK029436T],126%
7,COc1cc(NC(=S)N2CCN(c3cc(Cl)ccc3C)CC2)cc(OC)c1 [CBK266252],100%
8,O=C(NCc1cccs1)c1ccccc1-n1cccc1 [CBK149584],92%
9,CN(C)S(=O)(=O)Nc1ccc(-c2nnn[nH]2)cc1 [CBK156312],96.2%
10,CC(Sc1nc2ccccc2[nH]1)c1nc2ccccc2[nH]1 (stereo not drawn) [CBK266502],89.7%
11,COc1cccc(CN2CCCC(NC(=O)NCc3cccs3)C2)c1 (stereo not drawn) [CBK307357],73.3%
12,Clc1cc(NCCc2c[nH]c3ccccc23)n2nccc2n1 [CBK037218],40.6%
13,Brc1ccc(-n2c(SC/C=C/c3ccccc3)nnc2-c2ccncc2)cc1 [CBK266257],105%
14,COc1ccccc1-c1cnc(N)c(N2CCN(CCO)CC2)n1 [CBK063403],96.1%
15,Cc1cc(N2C(=O)CC(N3CCC(C(=O)N4CCOCC4)CC3)C2=O)no1 (stereo not drawn) [CBK269035],92.6%
16,CCOC(=O)c1sc(C)c(C(N)=O)c1/N=C1\CCCN1 [CBK020893],105%
17,COc1cc(/C=N/Nc2nonc2N)cc(OC)c1OC [CBK025758],73.2%
18,FC(F)(F)c1ccccc1/C=N/n1c(S)nnc1COc1ccccc1 [CBK265260],99.7%

row,SMILES,"viability at 28.5 h, 10 µM"
1,CCc1ccc(CNC(=O)Cn2nnc(-c3ccc(CN4CCC(C)CC4)cn3)n2)cc1 [CBK153928C],93.6%
2,c1cnc(-c2ccsc2)c(OC2CCCCC2)n1 [CBK106764],97.6%
3,CCNC(=O)Nc1nc2cccnc2cc1-c1ccccc1 [CBK081239],101%
4,CCCN(CC1CC1)C1CCc2cccc(C(N)=O)c2C1 (stereo not drawn) [CBK016579],114%
5,CC(=O)Oc1ccc2c(=O)cc(N(C)C)oc2c1C [CBK016581],60.5%
6,c1csc(N2CCN(c3nccn4cnnc34)CC2)n1 [CBK305185],103%
7,COc1ccc(C(=O)N2CCC(C)CC2)cc1[N+](=O)[O-] [CBK074341],93.3%
8,O=C(Nc1ccc(F)c(F)c1)c1cnc2sccn2c1=O [CBK287450],104%
9,Cc1ccc(S(=O)(=O)NCc2ccccc2)c(C)c1NS(C)(=O)=O [CBK268555],90.2%
10,CCn1c(C)c(C)n2c3c(=O)n(CCN4CCOCC4)c(=O)n(C)c3nc12 [CBK269786],90.6%
11,O=C(O)c1ccc(CNCc2ccc(-c3ccc(Cl)cc3)o2)cc1 [CBK269619C],94.7%
12,O=C(Cc1ccc(F)cc1)N1CCn2c(nnc2C2CC2)C1 [CBK283688],113%
13,CS(=O)(=O)c1ccc(-c2cnc(N)c(NCCCO)n2)cc1 [CBK063587],87.3%
14,O=C(NCc1ccc(Cl)cc1)c1cnc(-c2cccc(C(F)(F)F)c2)c(-c2ccncc2)c1 [CBK037607],84.8%
15,COCCc1noc(CC2CCN(c3cc(C)ncc3C#N)CC2)n1 [CBK304092],90.4%
16,COc1ccc(CN[C@H]2[C@H](O)[C@@H](N3CCN(C(C)=O)CC3)[C@@H]3OC[C@H]2O3)cc1 [CBK288808],96.9%
17,O=C(O)CCCc1nc(-c2ccccn2)no1 [CBK010880],94.8%
18,N#CC1=C(N)Oc2[nH]nc(-c3ccc4ccccc4c3)c2C1c1cn(CC(N)=O)nc1-c1ccccc1 (stereo not drawn) [CBK266624],107%
